Reference: PubChem BioAssay AID1259407 (Chemical Carcinogenesis Research Information System (CCRIS), 2018)
Calls of active or inactive are those of the source. No rule for the calls is given here.

System: CCRIS mutagenicity, Ames/micronucleus/aberration tests
Assay: CCRIS mutagenicity studies
[1] = Test System: AMES SALMONELLA TYPHIMURIUM, Strain/Indicator: TA1537, Metabolic Activation: NONE, Method: STANDARD PLATE

## Cc1ccc(N)c(S(=O)(=O)O)c1
Test System: AMES SALMONELLA TYPHIMURIUM, Strain/Indicator: TA98, Metabolic Activation: HAMSTER, LIVER, S-9, AROCLOR 1254, Method: STANDARD PLATE
  mutagenic call: inactive; negative
Test System: AMES SALMONELLA TYPHIMURIUM, Strain/Indicator: TA98, Metabolic Activation: NONE, Method: PREINCUBATION
  mutagenic call: inactive; negative
Test System: AMES SALMONELLA TYPHIMURIUM, Strain/Indicator: TA98, Metabolic Activation: NONE, Method: STANDARD PLATE
  mutagenic call: inactive; negative
Test System: AMES SALMONELLA TYPHIMURIUM, Strain/Indicator: TA98, Metabolic Activation: RAT LIVER S-9, PHENOBARBITAL AND BETA-NAPHTHOFLAVONE, Method: PREINCUBATION
  mutagenic call: inactive; negative
Test System: AMES SALMONELLA TYPHIMURIUM, Strain/Indicator: TA98, Metabolic Activation: RAT, LIVER, S-9, AROCLOR 1254, Method: STANDARD PLATE
  mutagenic call: inactive; negative
Test System: AMES SALMONELLA TYPHIMURIUM, Strain/Indicator: TA100, Metabolic Activation: HAMSTER, LIVER, S-9, AROCLOR 1254, Method: STANDARD PLATE
  mutagenic call: inactive; negative
Test System: AMES SALMONELLA TYPHIMURIUM, Strain/Indicator: TA100, Metabolic Activation: NONE, Method: PREINCUBATION
  mutagenic call: inactive; negative
Test System: AMES SALMONELLA TYPHIMURIUM, Strain/Indicator: TA100, Metabolic Activation: NONE, Method: STANDARD PLATE
  mutagenic call: inactive; negative
Test System: AMES SALMONELLA TYPHIMURIUM, Strain/Indicator: TA100, Metabolic Activation: RAT LIVER S-9, PHENOBARBITAL AND BETA-NAPHTHOFLAVONE, Method: PREINCUBATION
  mutagenic call: inactive; negative
Test System: AMES SALMONELLA TYPHIMURIUM, Strain/Indicator: TA100, Metabolic Activation: RAT, LIVER, S-9, AROCLOR 1254, Method: STANDARD PLATE
  mutagenic call: inactive; negative
Test System: AMES SALMONELLA TYPHIMURIUM, Strain/Indicator: TA102, Metabolic Activation: NONE, Method: PREINCUBATION
  mutagenic call: inactive; negative
Test System: AMES SALMONELLA TYPHIMURIUM, Strain/Indicator: TA102, Metabolic Activation: RAT LIVER S-9, PHENOBARBITAL AND BETA-NAPHTHOFLAVONE, Method: PREINCUBATION
  mutagenic call: inactive; negative
Test System: AMES SALMONELLA TYPHIMURIUM, Strain/Indicator: TA104, Metabolic Activation: NONE, Method: PREINCUBATION
  mutagenic call: inactive; negative
Test System: AMES SALMONELLA TYPHIMURIUM, Strain/Indicator: TA104, Metabolic Activation: RAT LIVER S-9, PHENOBARBITAL AND BETA-NAPHTHOFLAVONE, Method: PREINCUBATION
  mutagenic call: inactive; negative
Test System: AMES SALMONELLA TYPHIMURIUM, Strain/Indicator: TA1535, Metabolic Activation: HAMSTER, LIVER, S-9, AROCLOR 1254, Method: STANDARD PLATE
  mutagenic call: inactive; negative
Test System: AMES SALMONELLA TYPHIMURIUM, Strain/Indicator: TA1535, Metabolic Activation: NONE, Method: PREINCUBATION
  mutagenic call: inactive; negative
Test System: AMES SALMONELLA TYPHIMURIUM, Strain/Indicator: TA1535, Metabolic Activation: NONE, Method: STANDARD PLATE
  mutagenic call: inactive; negative
Test System: AMES SALMONELLA TYPHIMURIUM, Strain/Indicator: TA1535, Metabolic Activation: RAT LIVER S-9, PHENOBARBITAL AND BETA-NAPHTHOFLAVONE, Method: PREINCUBATION
  mutagenic call: inactive; negative
Test System: AMES SALMONELLA TYPHIMURIUM, Strain/Indicator: TA1535, Metabolic Activation: RAT, LIVER, S-9, AROCLOR 1254, Method: STANDARD PLATE
  mutagenic call: inactive; negative
Test System: AMES SALMONELLA TYPHIMURIUM, Strain/Indicator: TA1537, Metabolic Activation: HAMSTER, LIVER, S-9, AROCLOR 1254, Method: STANDARD PLATE
  mutagenic call: inactive; negative
Test System: AMES SALMONELLA TYPHIMURIUM, Strain/Indicator: TA1537, Metabolic Activation: NONE, Method: PREINCUBATION
  mutagenic call: inactive; negative
[1]
  mutagenic call: inactive; negative
Test System: AMES SALMONELLA TYPHIMURIUM, Strain/Indicator: TA1537, Metabolic Activation: RAT LIVER S-9, PHENOBARBITAL AND BETA-NAPHTHOFLAVONE, Method: PREINCUBATION
  mutagenic call: inactive; negative
Test System: AMES SALMONELLA TYPHIMURIUM, Strain/Indicator: TA1537, Metabolic Activation: RAT, LIVER, S-9, AROCLOR 1254, Method: STANDARD PLATE
  mutagenic call: inactive; negative
Test System: AMES SALMONELLA TYPHIMURIUM, Strain/Indicator: TA1538, Metabolic Activation: HAMSTER, LIVER, S-9, AROCLOR 1254, Method: STANDARD PLATE
  mutagenic call: inactive; negative
Test System: AMES SALMONELLA TYPHIMURIUM, Strain/Indicator: TA1538, Metabolic Activation: NONE, Method: STANDARD PLATE
  mutagenic call: inactive; negative
Test System: AMES SALMONELLA TYPHIMURIUM, Strain/Indicator: TA1538, Metabolic Activation: RAT, LIVER, S-9, AROCLOR 1254, Method: STANDARD PLATE
  mutagenic call: inactive; negative
Test System: E.COLI, Strain/Indicator: WP2UVRA/PKM101, Metabolic Activation: NONE, Method: PREINCUBATION
  mutagenic call: inactive; negative
Test System: E.COLI, Strain/Indicator: WP2UVRA/PKM101, Metabolic Activation: RAT LIVER S-9, PHENOBARBITAL AND BETA-NAPHTHOFLAVONE, Method: PREINCUBATION
  mutagenic call: inactive; negative
Test System: E.COLI, Strain/Indicator: WP2UVRA, Metabolic Activation: NONE, Method: PREINCUBATION
  mutagenic call: inactive; negative
Test System: E.COLI, Strain/Indicator: WP2UVRA, Metabolic Activation: RAT LIVER S-9, PHENOBARBITAL AND BETA-NAPHTHOFLAVONE, Method: PREINCUBATION
  mutagenic call: inactive; negative
Test System: MOUSE LYMPHOMA, Strain/Indicator: L5178Y (TK+/TK-), Metabolic Activation: NONE, Method: SUSPENSION/PLATE
  mutagenic call: inactive; negative. reevaluation of results: negative
Test System: MOUSE LYMPHOMA, Strain/Indicator: L5178Y (TK+/TK-), Metabolic Activation: RAT, LIVER, S-9, AROCLOR 1254, Method: SUSPENSION/PLATE
  mutagenic call: inactive; negative. reevaluation of results: equivocal
Test System: UDS RODENT HEPATOCYTES, Strain/Indicator: THY INCORP (NON-S-PHASE), Metabolic Activation: NONE, Method: AUTORADIOGRAPHY
  mutagenic call: inactive; negative

## COC1=C[C@@H]2[C@@H]3Cc4ccc(OC)c(O)c4[C@]2(CCN3C)CC1=O
Test System: AMES SALMONELLA TYPHIMURIUM, Strain/Indicator: TA98, Metabolic Activation: RAT, LIVER, S-9, PHENOBARBITAL AND BETA-NAPHTHOFLAVONE, Method: PREINCUBATION
  mutagenic call: inactive; negative
Test System: AMES SALMONELLA TYPHIMURIUM, Strain/Indicator: TA100, Metabolic Activation: RAT, LIVER, S-9, PHENOBARBITAL AND BETA-NAPHTHOFLAVONE, Method: PREINCUBATION
  mutagenic call: inactive; negative

## CC(=O)C1c2cccc(O)c2C(=O)c2c(O)cccc21
[1]
  mutagenic call: active; positive
Test System: AMES SALMONELLA TYPHIMURIUM, Strain/Indicator: TA1537, Metabolic Activation: RAT, LIVER, S-9, PHENOBARBITAL AND BETA-NAPHTHOFLAVONE, Method: STANDARD PLATE
  mutagenic call: inactive; negative
Test System: E. COLI, Strain/Indicator: WP2, Metabolic Activation: NONE, Method: STANDARD PLATE
  mutagenic call: inactive; negative
Test System: E. COLI, Strain/Indicator: WP2, Metabolic Activation: RAT, LIVER, S-9, AROCLOR 1254, Method: STANDARD PLATE
  mutagenic call: inactive; negative
Test System: E. COLI, Strain/Indicator: WP2 UVRA, Metabolic Activation: NONE, Method: STANDARD PLATE
  mutagenic call: inactive; negative
Test System: E. COLI, Strain/Indicator: WP2 UVRA, Metabolic Activation: RAT, LIVER, S-9, AROCLOR 1254, Method: STANDARD PLATE
  mutagenic call: inactive; negative

## Cc1cccc2c1cc1c3c(cccc32)-c2ccccc2-1
Test System: AMES SALMONELLA TYPHIMURIUM, Strain/Indicator: TA100, Metabolic Activation: RAT, LIVER, S-9, AROCLOR 1254
  mutagenic call: active; positive
